{
  "source": "patent US11976057B2",
  "about": "“MrgX2 antagonists” (GlaxoSmithKline Intellectual Property Development Limited, priority 2020, dated 2024)",
  "biological_target": "T1, human MRGPRX2 (Homo sapiens, UniProt Q96LB1)",
  "T1 sequence (Q96LB1 1-330)": "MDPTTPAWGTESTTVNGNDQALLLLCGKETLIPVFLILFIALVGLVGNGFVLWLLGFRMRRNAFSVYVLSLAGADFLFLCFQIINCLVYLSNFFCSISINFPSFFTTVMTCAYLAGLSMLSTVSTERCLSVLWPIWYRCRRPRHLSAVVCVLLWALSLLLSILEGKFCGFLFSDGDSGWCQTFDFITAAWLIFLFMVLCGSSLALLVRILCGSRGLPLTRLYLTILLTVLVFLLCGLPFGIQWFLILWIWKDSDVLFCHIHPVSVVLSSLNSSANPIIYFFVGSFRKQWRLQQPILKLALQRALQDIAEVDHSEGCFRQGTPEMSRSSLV",
  "assay": "Ca2+ mobilization assay (FLIPR TETRA): inhibition of Cortistatin-14 mediated MRGPRX2 activation",
  "data": [
    {"smiles": "C[C@@H](C(=O)Nc1ccc(Oc2ccc(F)cn2)cn1)[C@H]1CCC[C@@H](c2ccc(=O)[nH]c2)C1", "note": "[Example 283, (R)-N-(5((5-fluoropyridin-2-yl)oxy)pyridin-2-yl)-2-((1S,3R)-3-(6-oxo-1,6-dihydropyridin-3-yl)cyclohexyl)propanamide]", "values": [
      {"measurement": "IC50", "value": "≤ 10", "unit": "nM"}
    ]},
    {"smiles": "CC(C(=O)Nc1ccc(OCC(F)F)cn1)N1CCC(F)(F)[C@@H](c2ccc(=O)[nH]c2)C1", "note": "(stereo partly drawn) [Example 49, 2-((S)-4,4-difluoro-3-(6-oxo-1,6-dihydropyridin-3-yl)piperidin-1-yl)-N-(5-(2,2-difluoroethoxy)pyridin-2-yl)propanamide]", "values": [
      {"measurement": "IC50", "value": "100 to 3160", "unit": "nM"}
    ]},
    {"smiles": "C[C@@H](C(=O)Nc1ccc(CC2CCC2)cn1)N1CCC(F)(F)[C@@H](c2ccc(=O)[nH]c2)C1", "note": "[Example 84, (S)-N-(5-(cyclobutyl-methyl)pyridin-2-yl)-2-((S)-4,4-difluoro-3-(6-oxo-1,6-dihydropyridin-3-yl)piperidin-1-yl)propanamide]", "values": [
      {"measurement": "IC50", "value": "10 to 100", "unit": "nM"}
    ]},
    {"smiles": "CC(C(=O)Nc1ccc(CC2CC2)cn1)N1CCC(F)(F)[C@@H](c2ccc(=O)[nH]c2)C1", "note": "(stereo partly drawn) [Example 41, N-(5-(cyclopropyl-methyl)pyridin-2-yl)-2-((S)-4,4-difluoro-3-(6-oxo-1,6-dihydropyridin-3-yl)piperidin-1-yl)propanamide]", "values": [
      {"measurement": "IC50", "value": "100 to 3160", "unit": "nM"}
    ]},
    {"smiles": "C[C@@H](C(=O)Nc1cnc(Oc2ccc(F)c(F)c2F)cn1)N1CCC(F)(F)[C@@H](c2cc[n+]([O-])cc2)C1", "note": "[Example 122, 4-((S)-4,4-difluoro-1-((S)-1-oxo-1-((5-(2,3,4-trifluorophenoxy)pyrazin-2-yl)amino)propan-2-yl)piperidin-3-yl)pyridine 1-oxide]", "values": [
      {"measurement": "IC50", "value": "≤ 10", "unit": "nM"}
    ]},
    {"smiles": "C[C@@H](C(=O)Nc1cnc(C2CC2)cn1)N1CCC(F)(F)[C@@H](c2ccc(=O)[nH]c2)C1", "note": "[Example 70, (S)-N-(5-cyclopropyl-pyrazin-2-yl)-2-((S)-4,4-difluoro-3-(6-oxo-1,6-dihydropyridin-3-yl)piperidin-1-yl)propanamide]", "values": [
      {"measurement": "IC50", "value": "100 to 3160", "unit": "nM"}
    ]},
    {"smiles": "C[C@@H](C(=O)Nc1ccc(Oc2ccc(F)cc2F)cn1)N1CCC(F)(F)[C@@H](c2c[nH]c(=O)c([C@H](N)C(F)(F)F)c2)C1", "note": "(single isomer, unassigned) [Example 235]", "values": [
      {"measurement": "IC50", "value": "≤ 10", "unit": "nM"}
    ]},
    {"smiles": "C[C@@H](C(=O)Nc1ccc(F)cn1)N1CCC(F)(F)C(c2c[nH]c(=O)c(C(N)C(F)(F)F)c2)C1", "note": "(stereo partly drawn) [Example 232, (2S)-2-(3-(5-(1-amino-2,2,2-trifluoroethyl)-6-oxo-1,6-dihydropyridin-3-yl)-4,4-difluoropiperidin-1-yl)-N-(5-fluoropyridin-2-yl)propanamide]", "values": [
      {"measurement": "IC50", "value": "100 to 3160", "unit": "nM"}
    ]},
    {"smiles": "C[C@@H](C(=O)Nc1ccc(Oc2ccc(F)cc2F)cn1)N1CCC(F)(F)[C@@H](c2c[nH]c(=O)c(CN)c2)C1", "note": "[Example 205, (S)-2-((S)-3-(5-(aminomethyl)-6-oxo-1,6-dihydropyridin-3-yl)-4,4-difluoropiperidin-1-yl)-N-(5-(2,4-difluorophenoxy)pyridin-2-yl)propanamide]", "values": [
      {"measurement": "IC50", "value": "≤ 10", "unit": "nM"}
    ]},
    {"smiles": "CC(C(=O)Nc1ccc(-c2ccn(C)n2)cn1)N1CCC(F)(F)[C@@H](c2ccc(=O)[nH]c2)C1", "note": "(stereo partly drawn) [Example 55, 2-((S)-4,4-difluoro-3-(6-oxo-1,6-dihydropyridin-3-yl)piperidin-1-yl)-N-(5-(1-methyl-1H-pyrazol-3-yl)pyridin-2-yl)propanamide]", "values": [
      {"measurement": "IC50", "value": "3160 to 31600", "unit": "nM"}
    ]},
    {"smiles": "C[C@@H](C(=O)Nc1ccc(F)cn1)N1CCC(F)(F)[C@@H](c2ccc(=O)n(CC(F)(F)F)c2)C1", "note": "[Example 3, (S)-2-((S)-4,4-difluoro-3-(6-oxo-1-(2,2,2-trifluoroethyl)-1,6-dihydropyridin-3-yl)piperidin-1-yl)-N-(5-fluoropyridin-2-yl)propanamide]", "values": [
      {"measurement": "IC50", "value": "≤ 10", "unit": "nM"}
    ]},
    {"smiles": "C[C@@H](C(=O)Nc1ccc(Oc2ccc(F)cc2F)cn1)N1CCC(F)(F)C(c2ccnc(CN3CC(F)(F)C3)c2)C1", "note": "(mixture of isomers) [Example 270, (2S)-2-(3-(2-((3,3-difluoroazetidin-1-yl)methyl)pyridin-4-yl)-4,4-difluoropiperidin-1-yl)-N-(5-(2,4-difluorophenoxy)pyridin-2-yl)propanamide]", "values": [
      {"measurement": "IC50", "value": "10 to 100", "unit": "nM"}
    ]},
    {"smiles": "C[C@@H](C(=O)Nc1ccc(Oc2ccc(F)c(F)c2)cn1)N1CCC(F)(F)[C@@H](c2ccc(=O)[nH]c2)C1", "note": "[Example 268, (S)-2-((S)-4,4-difluoro-3-(6-oxo-1,6-dihydropyridin-3-yl)piperidin-1-yl)-N-(5-(3,4-difluorophenoxy)pyridin-2-yl)propanamide]", "values": [
      {"measurement": "IC50", "value": "≤ 10", "unit": "nM"}
    ]},
    {"smiles": "C[C@@H](C(=O)Nc1ccc(Oc2ccc(F)cc2F)cn1)N1CCC(F)(F)C(c2cc(C(O)C(F)(F)F)c[n+]([O-])c2)C1", "note": "(mixture of isomers) [Example 266, 3-(1-(1-((5-(2,4-difluorophenoxy)pyridin-2-yl)amino)-1-oxopropan-2-yl)-4,4-difluoropiperidin-3-yl)-5-(2,2,2-trifluoro-1-hydroxyethyl)pyridine 1-oxide]", "values": [
      {"measurement": "IC50", "value": "10 to 100", "unit": "nM"}
    ]},
    {"smiles": "C[C@@H](C(=O)Nc1ccc(Oc2ccc(F)cc2F)cn1)N1CCC(F)(F)[C@@H](c2c[nH]c(=O)c(CN3CCC(F)(F)CC3)c2)C1", "note": "[Example 240, (S)-N-(5-(2,4-difluorophenoxy)pyridin-2-yl)-2-((S)-3-(5-((4,4-difluoropiperidin-1-yl)methyl)-6-oxo-1,6-dihydropyridin-3-yl)-4,4-difluoropiperidin-1-yl)propanamide]", "values": [
      {"measurement": "IC50", "value": "≤ 10", "unit": "nM"}
    ]},
    {"smiles": "C[C@@H](C(=O)Nc1ccc(OCC2CC2)nn1)N1CCC(F)(F)[C@@H](c2ccc(=O)n(CC(F)(F)F)c2)C1", "note": "[Example 1, (S)—N-(6-(cyclopropylmethoxy)pyridazin-3-yl)-2-((S)-4,4-difluoro-3-(6-oxo-1-(2,2,2-trifluoroethyl)-1,6-dihydropyridin-3-yl)piperidin-1-yl)propanamide]", "values": [
      {"measurement": "IC50", "value": "≤ 10", "unit": "nM"}
    ]},
    {"smiles": "C[C@@H](C(=O)Nc1ccc(C(=O)OC2CCCC2)cn1)N1CCC(F)(F)[C@@H](c2ccc(=O)[nH]c2)C1", "note": "[Example 46, cyclopentyl 6-((S)-2-((S)-4,4-difluoro-3-(6-oxo-1,6-dihydropyridin-3-yl)piperidin-1-yl)propanamido) nicotinate]", "values": [
      {"measurement": "IC50", "value": "100 to 3160", "unit": "nM"}
    ]},
    {"smiles": "C[C@@H](C(=O)Nc1cnc(Oc2ccc(F)cc2F)cn1)N1CCC(F)(F)[C@@H](c2c[nH]c(=O)c(CN3CCOCC3)c2)C1", "note": "[Example 229, (S)-2-((S)-4,4-difluoro-3-(5-(morpholinomethyl)-6-oxo-1,6-dihydropyridin-3-yl)piperidin-1-yl)-N-(5-(2,4-difluorophenoxy)pyrazin-2-yl)propanamide]", "values": [
      {"measurement": "IC50", "value": "≤ 10", "unit": "nM"}
    ]},
    {"smiles": "C[C@@H](C(=O)Nc1ccc(OCC2CC2)nn1)N1CCC(F)(F)[C@@H](c2c[nH]c(=O)c(CN(C)C)c2)C1", "note": "[Example 231]", "values": [
      {"measurement": "IC50", "value": "100 to 3160", "unit": "nM"}
    ]},
    {"smiles": "C[C@@H](C(=O)Nc1ccc(OCC2CC2)nn1)N1CCC(F)(F)[C@@H](c2c[nH]c(=O)c(CN)c2)C1", "note": "[Example 203, (S)-2-((S)-3-(5-(aminomethyl)-6-oxo-1,6-dihydropyridin-3-yl)-4,4-difluoropiperidin-1-yl)-N-(6-(cyclopropylmethoxy)pyridazin-3-yl)propanamide]", "values": [
      {"measurement": "IC50", "value": "10 to 100", "unit": "nM"}
    ]},
    {"smiles": "CC(C(=O)Nc1ccc(CC2CCCCC2)cn1)N1CCC(F)(F)[C@@H](c2ccc(=O)[nH]c2)C1", "note": "(stereo partly drawn) [Example 27, N-(5-(cyclohexyl-methyl)pyridin-2-yl)-2-((S)-4,4-difluoro-3-(6-oxo-1,6-dihydropyridin-3-yl)piperidin-1-yl)propanamide]", "values": [
      {"measurement": "IC50", "value": "100 to 3160", "unit": "nM"}
    ]},
    {"smiles": "C[C@@H](C(=O)Nc1ccc(Oc2ccc(F)cc2)cn1)N1CCC(F)(F)[C@@H](c2c[nH]c(=O)c(C(N)=O)c2)C1", "note": "[Example 252, 5-((S)-4,4-difluoro-1-((S)-1-((5-(4-fluorophenoxy)pyridin-2-yl)amino)-1-oxopropan-2-yl)piperidin-3-yl)-2-oxo-1,2-dihydropyridine-3-carboxamide]", "values": [
      {"measurement": "IC50", "value": "≤ 10", "unit": "nM"}
    ]},
    {"smiles": "C[C@@H](C(=O)Nc1ccc(OCC2CC2)nn1)N1CCC(F)(F)C(c2ccc(=O)n(CCS(C)(=O)=O)c2)C1", "note": "(stereo partly drawn) [Example 191, (2S)-N-(6-(cyclopropylmethoxy)pyridazin-3-yl)-2-(4,4-difluoro-3-(1-(2-(methylsulfonyl)ethyl)-6-oxo-1,6-dihydropyridin-3-yl)piperidin-1-yl)propanamide]", "values": [
      {"measurement": "IC50", "value": "100 to 3160", "unit": "nM"}
    ]},
    {"smiles": "CC(C(=O)Nc1ncc(Oc2ccc(F)cc2)cc1F)N1CCC(F)(F)[C@@H](c2ccc(=O)[nH]c2)C1", "note": "(stereo partly drawn) [Example 86, 2-((S)-4,4-difluoro-3-(6-oxo-1,6-dihydropyridin-3-yl)piperidin-1-yl)-N-(3-fluoro-5-(4-fluorophenoxy)pyridin-2-yl)propanamide]", "values": [
      {"measurement": "IC50", "value": "10 to 100", "unit": "nM"}
    ]},
    {"smiles": "C[C@@H](C(=O)Nc1ccc(F)cn1)N1CCC(F)(F)[C@@H](c2ccc(=O)n(Cc3ccccc3)c2)C1", "note": "[Example 195]", "values": [
      {"measurement": "IC50", "value": "≤ 10", "unit": "nM"}
    ]},
    {"smiles": "CC(C(=O)Nc1ccc(F)cn1)N1CCC(F)(F)C(c2c[nH]c(=O)c(C#N)c2)C1", "note": "(stereo not shown) [Example 249, 2-(3-(5-cyano-6-oxo-1,6-dihydropyridin-3-yl)-4,4-difluoropiperidin-1-yl)-N-(5-fluoropyridin-2-yl)propanamide]", "values": [
      {"measurement": "IC50", "value": "100 to 3160", "unit": "nM"}
    ]},
    {"smiles": "C[C@@H](C(=O)Nc1ncc(OCC2CC2)cn1)N1CCC(F)(F)[C@@H](c2ccc(=O)[nH]c2)C1", "note": "[Example 35, (S)-N-(5-(cyclopropyl-methoxy)pyrimidin-2-yl)-2-((S)-4,4-difluoro-3-(6-oxo-1,6-dihydropyridin-3-yl)piperidin-1-yl)propanamide]", "values": [
      {"measurement": "IC50", "value": "100 to 3160", "unit": "nM"}
    ]},
    {"smiles": "C[C@@H](C(=O)Nc1ccc(Oc2ccc(F)cc2F)cn1)[C@H]1CCC[C@@H](c2cc[n+]([O-])cc2)C1", "note": "[Example 289, 4-((1R,3S)-3-((R)-1-((5-(2,4-difluorophenoxy)pyridin-2-yl)amino)-1-oxopropan-2-yl)cyclohexyl)pyridine 1-oxide]", "values": [
      {"measurement": "IC50", "value": "≤ 10", "unit": "nM"}
    ]}
  ]
}
